Measured values taken from patent US20250084091A1, “INHIBITORS OF SARS-COV-2” (The Texas A&M University System, priority 2021, published 2025).
pEC50, pIC50: −log10 of the molar value. Like-named read-outs stand apart in the source and are kept apart here.

Experiments:
HeLa-ACE2 cells = experiment: cells; assay type: cell-based; details: Table 2, total cell count in infected plates
[1] = test system: SARS-CoV-2 (strain USA-WA1/2020); experiment: microbe, parasite or virus in culture; assay type: cell-based
[2] = Uninfected host cell cytotoxicity counter screen; assay type: cell-based; details: human
Procedure: Uninfected host cell cytotoxicity counter screen: HeLa-ACE2 cells were maintained as described for the infection assay and seeded in the assay-ready plates at 400 cells/well. Plates were incubated for 24 hours at 37° C. 5% CO2. To assess cell viability, the Image-iT DEAD green reagent was used according to manufacturer instructions. Cells were fixed with 4% paraformaldehyde, and counterstained with DAPI. Fixed cells are imaged as described above.
Viral replication data analysis: Data from the primary screen and the host cell cytotoxicity screen are normalized to neutral (DMSO) […] inhibitor controls (2.5 μM Remdesivir for antiviral effect and 10 μM puromycin for infected host cell toxicity). For the uninfected host cell cytotoxicity counter-screen 40 μM puromycin is used as the positive control. Concentration response experiments will be tested in triplicate.

[3] = target: SARS-CoV-2 main protease (Mpro) (Severe acute respiratory syndrome coronavirus 2, UniProt P0DTD1); experiment: biochemical; details: read-out: Enzyme IC50
[4] = Severe acute respiratory syndrome coronavirus 2, HeLa-ACE2, read-out: CoV-2 HeLa EC50, Table 2, SARS-CoV-2 infected HeLa-ACE2 cells
[5] = Severe acute respiratory syndrome coronavirus 2, HeLa, Table 3, read-out: CoV-2 HeLa EC50
[6] = Table 3, select example compounds against mpro

Structure (SMILES) | pEC50 (HeLa-ACE2 cells) | pEC50 [1, 4] | CC50 at 24 h [2] [µM] | pEC50 [1, 5] | pIC50 ([3]; Table 2) | pIC50 [3, 6]
Cc1cncc(NC(=O)N2CCN(C(c3ccccc3)c3ccccc3)CC2)c1 [MKP-1323, 4-benzhydryl-N-(5-methylpyridin-3-yl)piperazine-1-carboxamide] | < 5.02 | < 5.02 | 31.7 | – | – | –
O=C(c1ccon1)N1CCN(C(c2ccccc2)c2ccccc2)CC1 [MKP-1324, 1-(diphenylmethyl)-4-(1,2-oxazole-3-carbonyl)piperazine] | < 5.02 | < 5.02 | > 39.8 | – | – | –
Cc1oncc1C(=O)N1CCN(C(c2ccccc2)c2ccccc2)CC1 [MKP-1332, (4-benzhydrylpiperazin-1-yl)(5-methylisoxazol-4-yl)methanone] | < 5.02 | < 5.02 | > 39.8 | – | – | –
O=C(c1cncc2cc[nH]c12)N1CCC(=C(c2cccc(F)c2)c2cccc(F)c2)CC1 [MKP-1355, (4-(bis(3-fluorophenyl)methylene)piperidin-1-yl)(1H-pyrrolo[3,2-c]pyridin-7-yl)methanone] | – | – | – | 7.03 | 7.55 | 7.92
O=C(c1cncc2cc[nH]c12)N1CCN(C(c2cccc(F)c2)c2cccc(F)c2)CC1 [MKP-1371, (4-(bis(3-fluorophenyl)methyl)piperazin-1-yl)(1H-pyrrolo[3,2-c]pyridin-7-yl)methanone] | – | – | – | 7.33 | 7.60 | 7.89
O=C1CC(C(=O)N2CCC(C(O)(c3ccccc3)c3ccccc3)CC2)CCN1 (stereo not drawn) [NZ-789, 4-[4-(hydroxydiphenylmethyl)piperidine-1-carbonyl]piperidin-2-one] | < 5.02 | < 5.02 | > 39.8 | – | – | –
O=C1CC(C(=O)N2CCC(C(O)(c3ccccc3)c3ccccc3)CC2)CN1 (stereo not drawn) [NZ-790, 4-[4-(hydroxydiphenylmethyl)piperidine-1-carbonyl]pyrrolidin-2-one] | < 5.02 | < 5.02 | > 39.8 | – | – | –
O=Cc1ccccc1C(=O)N1CCC(C(O)(c2ccccc2)c2ccccc2)CC1 [NZ-791, 2-[4-(hydroxydiphenylmethyl)piperidine-1-carbonyl]benzaldehyde] | < 5.02 | < 5.02 | > 39.8 | – | – | –
O=C1CC(CC(=O)N2CCN(C3c4ccccc4CS(=O)(=O)c4ccccc43)CC2)c2ccccc2N1 (stereo not drawn) [NZ-811, 4-[2-[4-(5,5-dioxo-6,11-dihydrobenzo[c][1]benzothiepin-11-yl)piperazin-1-yl]-2-oxo-ethyl]-3,4-dihydro-1H-quinolin-2-one] | < 5.02 | < 5.02 | > 39.8 | – | – | –
O=C1Nc2ccccc2C(N2CCN(C(=O)c3cncc4cc[nH]c34)CC2)c2ccccc21 (stereo not drawn) [NZ-815, 11-[4-(1H-pyrrolo[3,2-c]pyridine-7-carbonyl)piperazin-1-yl]-5,11-dihydrobenzo[c][1]benzazepin-6-one] | – | – | – | 7.01 | 7.52 | 7.52
CS(=O)(=O)c1ccccc1C(c1cccc(F)c1)N1CCN(C(=O)c2cncc3cc[nH]c23)CC1 (stereo not drawn) [NZ-816, [4-[(3-fluorophenyl)-(2-methylsulfonylphenyl)methyl]piperazin-1-yl]-(1H-pyrrolo[3,2-c]pyridin-7-yl)methanone] | – | – | – | 7.40 | 7.52 | 7.77
O=C(c1cncc2cn[nH]c12)N1CCC(=C2c3ccccc3CS(=O)(=O)c3ccccc32)CC1 [NZ-821, [4-(5,5-dioxo-6H-benzo[c][1]benzothiepin-11-ylidene)-1-piperidyl]-(1H-pyrazolo[4,3-c]pyridin-7-yl)methanone] | – | – | – | 7.64 | 7.36 | 7.36
O=C(c1cncc2cn[nH]c12)N1CCN(C2c3ccccc3CS(=O)(=O)c3ccccc32)CC1 (stereo not drawn) [NZ-822, [4-(5,5-dioxo-6,11-dihydrobenzo[c][1]benzothiepin-11-yl)piperazin-1-yl]-(1H-pyrazolo[4,3-c]pyridin-7-yl)methanone] | – | – | – | 7.05 | – | 7.27
O=C(c1cnccc1Cl)N1CCN(C2c3ccccc3CCc3ccccc32)CC1 [ZS-331, (4-chloro-3-pyridyl)-[4-(2-tricyclo[9.4.0.03,8]pentadeca-1(11),3(8),4,6,12,14-hexaenyl)piperazin-1-yl]methanone] | – | – | – | – | 6.43 | –
O=C(c1cccnc1Cl)N1CCN(C2c3ccccc3CCc3ccccc32)CC1 [ZS-333, (2-chloro-3-pyridyl)-[4-(2-tricyclo[9.4.0.03,8]pentadeca-1(11),3(8),4,6,12,14-hexaenyl)piperazin-1-yl]methanone] | < 5.02 | < 5.02 | > 39.8 | – | – | –
O=C(O)c1cncc(C(=O)N2CCN(C3c4ccccc4CCc4ccccc43)CC2)c1 [ZS-335, 5-[4-(2-tricyclo[9.4.0.03,8]pentadeca-1(11),3(8),4,6,12,14-hexaenyl)piperazine-1-carbonyl]pyridine-3-carboxylic acid] | < 5.02 | < 5.02 | > 39.8 | – | – | –
